Numbers after ± are expanded uncertainties.
Conditions: Crystal; DTA

Work on `O=C1C=CC(=O)O1` [maleic anhydride] yielded a Normal melting temperature of 52.80 ± 0.5 °C.

From the NIST ThermoML archive (doi:10.1016/j.fluid.2014.01.008)
